PMC11323312, “Structural response of G protein binding to the cyclodepsipeptide inhibitor FR900359 probed by NMR spectroscopy” (Chemical Science, 2024)
Starred links: 1 amine or outer side, 2 acyl side, 3 side chain; linkers in the order of their positions; H or OH if unused. Positions of bridges follow the written chain, without caps; N, C: chain ends. Non-standard residues stand in square brackets, D forms with d. Residues, ends and D or L forms follow the SMILES beside them. *: point of attachment. Leu(3R-OH,Nα-propionyl) = CCC(=O)N[C@H](C(=O)*)[C@H](O)C(C)C; X1 = CC(C)[C@@H](O[*:3])[C@H](N[*:1])C(=O)[*:2]; NMeT = CN[C@H](C(=O)O)[C@@H](C)O; dPhLac = O=C(O)[C@H](O)Cc1ccccc1; NMeA = CN[C@@H](C)C(=O)O; NMeDha = C=C(NC)C(=O)O

How the values were obtained:
[1] = test system: Gαi/q; assay: Structural response to inhibitor binding by DNP-enhanced ssNMR (13C-NCOCX, unique pair labeling); conditions: inhibitor : protein 1.5 : 1, 4 °C overnight, nominal 105 K
Experimental: The protein response to inhibitor binding was studied by HNCO(CX) experiments with 20 ms mixing time recorded on DNP samples of frozen Gαi/q protein solution. The polarizing agent AsymPolPOK[36] was dried from a chloroform : methanol (1 : 1) stock solution to form a film that was resuspended with 1 mg of protein solution that was concentrated to a volume of 15 μL, subsequently 15 μL of d8-glycerol was added. The final concentration of radical in the mixture with the protein sample in the 3.2 mm NMR rotor was 10 mM. The samples were measured at a DNP setup consisting of a 400 MHz Avance Neo spectrometer (Bruker) with a 3.2 mm Cryo MAS HCN probe (Bruker) and a 263 GHz Gyrotron as microwave source. All experiments were done at a nominal temperature of 105 K. A MAS rate of 8 kHz and proton decoupling of 100 kHz were chosen. To investigate the effects of inhibitor binding, the protein solution was incubated with unlabeled FR or YM from a 10 mM DMSO stock solution at an inhibitor to protein molar ratio of 1.5 : 1 at 4 °C overnight. To study the effects of nucleotide binding, 5 μL of GDP was added to the samples from a 17 mM solution of GDP : MgCl2 (3 : 1 molar ratio) directly into the rotor. The GTP-bound state was generated by subsequent addition of 2 μL of GTP [0.1 M] and 2 μL AlF4 salt solution (150 mM MgCl2, 75 mM NaF, 15 mM AlCl3). DNP enhancement was measured by comparison of ^13C-CP spectra with and without microwave irradiation. Referencing was done indirectly using the right peak of d8-glycerol at 64.78 ppm.
In order to collect information about conformational changes in a spatially resolved manner, a unique pair labeling approach was chosen,[50] resulting in signals in the NMR spectra from a unique pair of neighboring amino acids in NCO type experiments. […] To obtain sufficient signal intensity in the experiments, spectra were recorded using DNP-enhanced ssNMR. […] Under those conditions, the full sampled conformational space is conserved and reflected in NMR line shapes, which can then be analyzed. […]

[2] = target: T1, chimeric Gαi/q protein (FR-sensitive Gαi mutant) (Homo sapiens, UniProt P63096, H188P/K180P/K54R/T187Y/V185I/V50I/V72L/Y69F); assay: Radioligand binding ([3H]PSB-15900 homologous competition, filtration assay); conditions: chimeric Gαi/q on TALON beads, 5 μg protein; [3H]PSB-15900 5 nM; unlabeled FR 0.003-30 μM; 2 h, 4 °C; 50 mM Tris-HCl pH 7.4; one-site homologous equation; mean ± SD of 3 independent experiments in duplicates
T1 construct: made in house; host or cells: E. coli (pET16b)
Experimental: The purified chimeric Gαi/q protein was preincubated with TALON immobilized metal affinity chromatography (IMAC) resin beads (Takara Bio) for 1–2 h at 4 °C with gentle shaking (0.025 μL beads per 0.1 mL of protein solution in 50 mM Tris–HCl, pH 7.4; final protein amount per sample: 5 μg). Each sample contained 70 μL of assay buffer (50 mM Tris–HCl, pH 7.4), 5 μL of dimethyl sulfoxide (DMSO) or the test compound (dissolved in DMSO), 50 μL of [^3H]PSB-15900 (FR-derived radioligand; 28 Ci/mmol; Pharmaron, Cardiff, UK)[14] in assay buffer (final concentration: 5 nM) and 125 μL of protein solution. Total binding of [^3H]PSB-15900 was determined using 5 μL of DMSO, and non-specific binding was determined using 5 μL of unlabeled FR900359 (final concentration: 5 μM). For competition binding experiments, dilutions from 30 μM to 0.003 μM of unlabeled FR900359, dissolved in DMSO, were added. Incubation was performed for 2 h at 4 °C with gentle shaking. […]
Multiple regions of the protein are either directly involved in binding of cyclodepsipeptide inhibitors, as shown by structural data on bound YM,[23] or show an indirect response to binding of the inhibitor, as proposed by MD simulations.[13,25] To investigate the conformational response of the G protein to inhibitor binding, structural alterations of the G protein itself must be detected. […]

T1 sequence (P63096 whole entry V50I/K54R/Y69F/V72L/K180P/V185I/T187Y/H188P): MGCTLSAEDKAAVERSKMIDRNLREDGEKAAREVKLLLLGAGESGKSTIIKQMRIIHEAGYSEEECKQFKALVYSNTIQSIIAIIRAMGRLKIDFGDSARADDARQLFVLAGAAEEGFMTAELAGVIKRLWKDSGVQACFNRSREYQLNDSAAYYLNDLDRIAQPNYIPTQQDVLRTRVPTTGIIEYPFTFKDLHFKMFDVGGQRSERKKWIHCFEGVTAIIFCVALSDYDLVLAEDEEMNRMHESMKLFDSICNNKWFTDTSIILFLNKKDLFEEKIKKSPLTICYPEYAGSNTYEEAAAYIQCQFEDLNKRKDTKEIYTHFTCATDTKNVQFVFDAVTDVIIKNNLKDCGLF

Molecule	response of switch III (R242-M243) to inhibitor binding ([1]; RM-pair)	response of α5 helix (V335-F336) to inhibitor binding ([1]; VF-pair)	response of switch I (V179-P180) to inhibitor binding ([1]; VP-pair)	Kd [2] [nM]
YM-254890	no effects in switch III	minor effects	clear narrowing of the ^13C valine signals	–
C=C1C(=O)N[C@@H](C)C(=O)N(C)[C@@H](C)C(=O)N[C@@H]([C@H](OC(=O)[C@@H](NC(=O)CC)[C@H](O)C(C)C)C(C)C)C(=O)N(C)[C@@H]([C@@H](C)OC)C(=O)O[C@H](C(C)C)[C@H](NC(C)=O)C(=O)O[C@H](Cc2ccccc2)C(=O)N1C [FR, FR900359] (Ac-[X1][dPhLac][NMeDha]A[NMeA][X1](Leu(3R-OH,Nα-propionyl))[NMeT](Me); ester 1-C)	–	–	–	271 ± 69
